Experiments:
Format in all cases: cell-based
[1] = system: multiple rare cancer tumor cell lines; assay: MBZ alone, cell viability IC50 in rare cancer tumor cell lines (Example 3); conditions: read-out: IC50s (range over cell lines)
Description: The FDA-approved anti-helminthic drug mebendazole (MBZ) has been reported to affect several biological pathways involved in tumor growth and metastasis. Based on this activity, multiple rare cancer tumor cell lines including, but not limited to, neuroblastoma, carcinoid tumors, esophageal adenocarcinoma, gastrointestinal stromal tumors, leiomyosarcoma, pheochromocytoma, and mesothelioma were analyzed for their susceptibility to MBZ treatment alone or in combination with standard chemotherapeutic agents in vitro.

[2] = system: MUG-Chor1 chordoma cell line; assay: MBZ cell viability dose response (CellTiter Glo); conditions: 72 hours, up to the highest concentration, 50 μM
Description: (§1) The effect of mebendazole administration on cell lines derived from exemplary cancers was tested. One approach to determining the effectiveness of mebendazole in the treatment of cancer comprises in vitro testing. In this approach, cancer cell lines representative of the cancers of the disclosure are cultured in vitro according to standard techniques (see, for example, Human Cell Culture Protocols, Third Edition, […] R. D. Hughes, Editors, Humana Press, 2012), and increasing concentrations of mebendazole are administered to determine the IC50 value. As used herein, the term “IC50 value” refers to the concentration of a compound (for example mebendazole) wherein the response to that compound (such as inhibited cellular viability) is reduced by half. The IC50 is thus a measure of the effectiveness of a compound in inhibiting a biological process. […] Based on this biology, several rare cancer tumor cell lines including neuroblastoma, rhabdomyosarcoma and Ewing sarcoma were analyzed for sensitivity to MBZ treatment in vitro. […] In all cases, including those described below, the viable cells were determined using the CellTiter Glo® kit and an IC50 curve was generated using the PRISM software. […] A dose response curve was generated using the PRISM software, with the intent of determining an IC50 for the cell lines following treatment of MBZ.

[3] = system: U-CH2 chordoma cell line; assay: MBZ cell viability dose response (CellTiter Glo); conditions: 72 hours, up to the highest concentration, 50 μM
Description: as §1

[4] = system: rare cancer tumor cell lines including neuroblastoma, rhabdomyosarcoma and Ewing sarcoma; assay: MBZ cell viability IC50 across rare cancer tumor cell lines; conditions: several rare cancer tumor cell lines; 72 hours; read-out: IC50s (range over cell lines)
Description: The effect of mebendazole administration on cell lines derived from exemplary cancers was tested. One approach to determining the effectiveness of mebendazole in the treatment of cancer comprises in vitro testing. In this approach, cancer cell lines representative of the cancers of the disclosure are cultured in vitro according to standard techniques (see, for example, Human Cell Culture Protocols, Third Edition, […] R. D. Hughes, Editors, Humana Press, 2012), and increasing concentrations of mebendazole are administered to determine the IC50 value. As used herein, the term “IC50 value” refers to the concentration of a compound (for example mebendazole) wherein the response to that compound (such as inhibited cellular viability) is reduced by half. The IC50 is thus a measure of the effectiveness of a compound in inhibiting a biological process. […] Based on this biology, several rare cancer tumor cell lines including neuroblastoma, rhabdomyosarcoma and Ewing sarcoma were analyzed for sensitivity to MBZ treatment in vitro. […] In all cases, including those described below, the viable cells were determined using the CellTiter Glo® kit and an IC50 curve was generated using the PRISM software.

[5] = system: PC12 pheochromocytoma/paraganglioma cell line; assay: Synergy of MBZ or HA-PLGA-MBZ with chemotherapeutic agents (Chou-Talalay CI, Cell Titer Glo); conditions: PC12 + Vincristine
Description: (§4) For in vitro experiments, cells were plated in triplicate and treated with a range of concentrations of MBZ and relevant chemotherapeutic agents in a complete Latin square.
(§5) Cells were plated in triplicate and treated with a range of 5 concentrations of MBZ in combination with 5 concentrations of chemotherapeutic agents in a complete Latin square. Following a 72 hour incubation, cell viability was determined using Cell Titer Glo.
(§6) In table 22 below, cells were plated in triplicate and treated with a range of 5 concentrations of MBZ or HA-PLGA-MBZ nanoparticles containing a molar equivalent of MBZ, and 5 concentrations of relevant chemotherapeutic agents in a complete Latin square. Combination indexes (CI) were determined based on the method described by Chou-Talalay with a CI value less than 0.9 indicating synergy. […] Numbers in parentheses represent the range of synergistic CI values for each cell line and drug combination.

[6] = system: COLO-205 cells; assay: MBZ vs HA-PLGA-MBZ cell viability IC50 (Cell Titer Glo); conditions: Homo sapiens, 72 hour incubation
Description: (§2) An IC50 for each treatment was established using the PRISM software.

[7] = system: HCT-116 cells; assay: as above; conditions: Homo sapiens, 72 hour incubation
Description: as §2

[8] = system: SKOV-3 cells; assay: as above; conditions: Homo sapiens, SK-OV-3, 72 hour incubation
Description: as §2

[9] = system: CHP-212 cells; assay: as above; conditions: Homo sapiens, 72 hour incubation
Description: as §2

[10] = system: SW-1271 cells; assay: as above; conditions: SW1271, 72 hour incubation
Description: as §2

[11] = system: NCI-H295R cells; assay: as above; conditions: Homo sapiens, 72 hour incubation
Description: as §2

[12] = system: SK-UT-1 cells; assay: as above; conditions: Homo sapiens, 72 hour incubation
Description: as §2

[13] = system: DMS-114 cells; assay: as above; conditions: Homo sapiens, 72 hour incubation
Description: as §2

[14] = system: COV-362 cells; assay: as above; conditions: COV362, 72 hour incubation
Description: as §2

[15] = system: PC-12 cells; assay: as above; conditions: Rattus norvegicus, 72 hour incubation
Description: as §2

[16] = system: SNU-16 cells; assay: as above; conditions: Homo sapiens, 72 hour incubation
Description: as §2

[17] = system: CHP-212 neuroblastoma cell line; assay: MBZ cell viability IC50 (CellTiter Glo); conditions: Homo sapiens, 72 hours
Description: (§3) The effect of mebendazole administration on cell lines derived from exemplary cancers was tested. One approach to determining the effectiveness of mebendazole in the treatment of cancer comprises in vitro testing. In this approach, cancer cell lines representative of the cancers of the disclosure are cultured in vitro according to standard techniques (see, for example, Human Cell Culture Protocols, Third Edition, […] R. D. Hughes, Editors, Humana Press, 2012), and increasing concentrations of mebendazole are administered to determine the IC50 value. As used herein, the term “IC50 value” refers to the concentration of a compound (for example mebendazole) wherein the response to that compound (such as inhibited cellular viability) is reduced by half. The IC50 is thus a measure of the effectiveness of a compound in inhibiting a biological process. […] Based on this biology, several rare cancer tumor cell lines including neuroblastoma, rhabdomyosarcoma and Ewing sarcoma were analyzed for sensitivity to MBZ treatment in vitro. […] In all cases, including those described below, the viable cells were determined using the CellTiter Glo® kit and an IC50 curve was generated using the PRISM software. […] The neuroblastoma cell lines IMR-32, CHP-212, and SK-N-AS were treated with ten serial dilutions of mebendazole for 72 hours.

[18] = system: SK-N-AS neuroblastoma cell line; assay: MBZ cell viability IC50 (CellTiter Glo); conditions: Homo sapiens, 72 hours
Description: as §3

[19] = system: IMR-32 neuroblastoma cell line; assay: MBZ cell viability IC50 (CellTiter Glo); conditions: Homo sapiens, 72 hours
Description: as §3

[20] = system: CHP-212 neuroblastoma cells; assay: Synergy of MBZ or HA-PLGA-MBZ with chemotherapeutic agents (Chou-Talalay CI, Cell Titer Glo); conditions: CHP-212 + 4-HC
Description: as §4, §5, §6

How did the IC50 [1] turn out when `COC(=O)Nc1nc2ccc(C(=O)c3ccccc3)cc2[nH]1` [MBZ, methyl N-(6-benzoyl-1H-benzimidazol-2-yl)carbamate] was run?
Its IC50 is 0.09 to 2.2 µM.

And the “sensitivity to MBZ treatment (dose response)” value [2]?
The value was “largely resistant”.

What about the “sensitivity to MBZ treatment (dose response)” value [3] of the same compound?
Its value is “largely resistant”.

What about the IC50 [4] of the same compound?
The IC50 was 0.05 to 1 µM.

What about the “range of synergistic CI values” [5] of the same compound?
The value was “Yes- (0.274-0.870)”.

And the IC50 [6]?
Its IC50 is 0.27 µM.

And the IC50 [7]?
Its IC50 is 0.32 µM.

What about the IC50 [8] of the same compound?
The IC50 was 0.68 µM.

And the IC50 [9]?
The IC50 was 0.13 µM.

What about the IC50 [10] of the same compound?
Its IC50 is over 50 µM.

And the IC50 [11]?
Its IC50 is 0.33 µM.

What about the IC50 [12] of the same compound?
Its IC50 is 0.26 µM.

And the IC50 [13]?
Its IC50 is 0.8 µM.

What about the IC50 [14] of the same compound?
Its IC50 is 0.33 µM.

And the IC50 [15]?
Its IC50 is 1.03 µM.

And the IC50 [16]?
The IC50 was 0.11 µM.

And the IC50 [17]?
Its IC50 is 0.13 µM.

What about the IC50 [18] of the same compound?
Its IC50 is 0.68 µM.

What about the IC50 [19] of the same compound?
Its IC50 is 0.05 µM.

And the “range of synergistic CI values” [20]?
Its value is 0.569-0.860.

Source: US20190175560A1, “MEBENDAZOLE CANCER THERAPIES AND METHODS OF USE” (Shepherd Therapeutics, Inc., priority 2017, published 2019)
